Columns and labels:
bamyardgrass = test: Test B flood test barnyardgrass; format: in vivo, Echinochloa crus-galli; conditions: Pre-emergence
In short: (§1)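 Each value is a visual injury score relative to controls, with 10 meaning complete control and 0 no effect. Evaluation took place twelve to sixteen days after the 2-leaf-stage plants were treated and kept in the greenhouse.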

duck salad = test: Test B flood test duck salad; format: in vivo, Heteranthera limosa; conditions: Pre-emergence
In short: as §1

purple nutsedge = test: Test B pre/postemergence purple nutsedge; format: in vivo, Cyperus rotundus
In short: (§2)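 Response is a visual 0-to-10 score relative to untreated plants, where 0 means no effect and 10 means complete control, taken twelve to sixteen days after application. Treatments went onto soil at planting and onto foliage of 1- to 4-leaf plants, using a surfactant-containing non-phytotoxic solvent.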

blackgrass = test: Test B pre/postemergence blackgrass; format: in vivo, Alopecurus myosuroides
In short: as §2

corn = test: Test B pre/postemergence corn; format: in vivo, Zea mays
In short: as §2

rice = test: Test B flood test rice; format: in vivo, Oryza sativa; conditions: Pre-emergence
In short: as §1

bedstraw = test: Test B pre/postemergence bedstraw; format: in vivo, Galium aparine
In short: as §2

morningglory = test: Test B pre/postemergence morningglory; format: in vivo, Ipomoea hederacea
In short: as §2

smallflower flatsedge = test: Test B flood test smallflower flatsedge; format: in vivo, Cyperus difformis; conditions: Pre-emergence
In short: as §1

sugar beet = test: Test B pre/postemergence sugar beet; format: in vivo, Beta vulgaris
In short: as §2

velvetleaf = test: Test B pre/postemergence velvetleaf; format: in vivo, Abutilon theophrasti
In short: as §2

soybean = test: Test B pre/postemergence soybean; format: in vivo, Glycine max
In short: as §2

pigweed = test: Test B pre/postemergence pigweed; format: in vivo, Amaranthus retroflexus
In short: as §2

rape = test: Test B pre/postemergence rape; format: in vivo, Brassica napus
In short: as §2

surinam grass = test: Test B pre/postemergence surinam grass; format: in vivo, Brachiaria decumbens
In short: as §2

giant foxtail = test: Test B pre/postemergence giant foxtail; format: in vivo, Setaria faberii
In short: as §2

[1] = Rate 1000 g/ha, scale 0 to 10 (0 no effect, 10 complete control)
[2] = Rate 125 g/ha, flood test species, scale 0 to 10 where 0 is no effect and 10 is complete control
[3] = Rate 250 g/ha, flood-test species, scale 0 to 10, 0 is no effect, 10 is complete control
[4] = Rate 500 g/ha, flood test species, scale 0 to 10 (0 no effect, 10 complete control)
[5] = Postemergence, Rate 1000 g/ha, scale 0 to 10 (0 no effect, 10 complete control)
[6] = Preemergence, Rate 250 g/ha, scale of 0 to 10 where 0 is no effect and 10 is complete control
[7] = Rate 125 g/ha, Postemergence, scale of 0 to 10 where 0 is no effect and 10 is complete control
[8] = Rate 250 g/ha, Postemergence, scale of 0 to 10 where 0 is no effect and 10 is complete control
[9] = Rate 500 g/ha, Postemergence, scale 0 to 10, 0 no effect, 10 complete control
[10] = Rate 1000 g/ha, Preemergence, scale 0 to 10 (0 no effect, 10 complete control)
[11] = Preemergence, Rate 500 g/ha, scale of 0 to 10 where 0 is no effect and 10 is complete control
[12] = Rate 125 g/ha, Preemergence, scale of 0 to 10 where 0 is no effect and 10 is complete control

C=CCn1c(=O)on(C(=O)N(c2ccc(F)cc2)C(C)C(=O)OCC)c1=O (centres unmarked) [Compound 279]
6: Blackgrass plant response rating (blackgrass; [5]) | Giant foxtail plant response rating (giant foxtail; [6])
0: Barnyardgrass plant response rating (bamyardgrass; [1]) | Barnyardgrass plant response rating (bamyardgrass; [2]) | Barnyardgrass plant response rating (bamyardgrass; [3]) | Barnyardgrass plant response rating (bamyardgrass; [4]) | Ducksalad plant response rating (duck salad; [1]) | Ducksalad plant response rating (duck salad; [2]) | Ducksalad plant response rating (duck salad; [3]) | Ducksalad plant response rating (duck salad; [4]) | Nutsedge plant response rating (purple nutsedge; [5]) | Nutsedge plant response rating (purple nutsedge; [6]) | Nutsedge plant response rating (purple nutsedge; [7]) | Plant response rating, Nutsedge (purple nutsedge; [8]) | Nutsedge plant response rating (purple nutsedge; [9]) | Plant response rating, Nutsedge (purple nutsedge; [10]) | Blackgrass plant response rating (blackgrass; [6]) | Plant response rating, Blackgrass (blackgrass; [11]) | Blackgrass plant response rating (blackgrass; [7]) | Blackgrass plant response rating (blackgrass; [12]) | Plant response rating, Blackgrass (blackgrass; [10]) | Corn plant response rating (corn; [5]) | Corn plant response rating (corn; [6]) | Plant response rating, Corn (corn; [11]) | Corn plant response rating (corn; [7]) | Corn plant response rating (corn; [12]) | Plant response rating, Corn (corn; [8]) | Corn plant response rating (corn; [9]) | Plant response rating, Corn (corn; [10]) | Rice plant response rating (rice; [1]) | Rice plant response rating (rice; [2]) | Rice plant response rating (rice; [3]) | Rice plant response rating (rice; [4]) | Bedstraw plant response rating (bedstraw; [5]) | Bedstraw plant response rating (bedstraw; [6]) | Plant response rating, Bedstraw (bedstraw; [11]) | Bedstraw plant response rating (bedstraw; [7]) | Bedstraw plant response rating (bedstraw; [12]) | Plant response rating, Bedstraw (bedstraw; [8]) | Bedstraw plant response rating (bedstraw; [9]) | Plant response rating, Bedstraw (bedstraw; [10]) | Morningglory plant response rating (morningglory; [6]) | Plant response rating, Morningglory (morningglory; [11]) | Morningglory plant response rating (morningglory; [12]) | Plant response rating, Morningglory (morningglory; [10]) | S. Flatsedge plant response rating (smallflower flatsedge; [1]) | S. Flatsedge plant response rating (smallflower flatsedge; [2]) | S. Flatsedge plant response rating (smallflower flatsedge; [3]) | S. Flatsedge plant response rating (smallflower flatsedge; [4]) | Sugarbeets plant response rating (sugar beet; [6]) | Plant response rating, Sugarbeets (sugar beet; [11]) | Sugarbeets plant response rating (sugar beet; [7]) | Sugarbeets plant response rating (sugar beet; [12]) | Plant response rating, Sugarbeets (sugar beet; [8]) | Sugarbeets plant response rating (sugar beet; [9]) | Plant response rating, Sugarbeets (sugar beet; [10]) | Velvetleaf plant response rating (velvetleaf; [5]) | Velvetleaf plant response rating (velvetleaf; [6]) | Plant response rating, Velvetleaf (velvetleaf; [11]) | Velvetleaf plant response rating (velvetleaf; [7]) | Velvetleaf plant response rating (velvetleaf; [12]) | Plant response rating, Velvetleaf (velvetleaf; [8]) | Velvetleaf plant response rating (velvetleaf; [9]) | Plant response rating, Velvetleaf (velvetleaf; [10]) | Soybean plant response rating (soybean; [6]) | Plant response rating, Soybean (soybean; [11]) | Soybean plant response rating (soybean; [7]) | Soybean plant response rating (soybean; [12]) | Plant response rating, Soybean (soybean; [10]) | Redroot pigweed plant response rating (pigweed; [6]) | Plant response rating, Redroot pigweed (pigweed; [11]) | Redroot pigweed plant response rating (pigweed; [7]) | Redroot pigweed plant response rating (pigweed; [12]) | Plant response rating, Redroot pigweed (pigweed; [10]) | Rape plant response rating (rape; [5]) | Rape plant response rating (rape; [6]) | Plant response rating, Rape (rape; [11]) | Rape plant response rating (rape; [7]) | Rape plant response rating (rape; [12]) | Plant response rating, Rape (rape; [8]) | Rape plant response rating (rape; [9]) | Plant response rating, Rape (rape; [10]) | B. signalgrass plant response rating (surinam grass; [5]) | B. signalgrass plant response rating (surinam grass; [6]) | Plant response rating, B. signalgrass (surinam grass; [11]) | B. signalgrass plant response rating (surinam grass; [7]) | B. signalgrass plant response rating (surinam grass; [12]) | Plant response rating, B. signalgrass (surinam grass; [8]) | B. signalgrass plant response rating (surinam grass; [9]) | Plant response rating, B. signalgrass (surinam grass; [10]) | Giant foxtail plant response rating (giant foxtail; [7]) | Plant response rating, Giant foxtail (giant foxtail; [8])
1: Morningglory plant response rating (morningglory; [7]) | Giant foxtail plant response rating (giant foxtail; [9])
4: Blackgrass plant response rating (blackgrass; [9]) | Sugarbeets plant response rating (sugar beet; [5]) | Soybean plant response rating (soybean; [5]) | Soybean plant response rating (soybean; [9]) | Redroot pigweed plant response rating (pigweed; [5]) | Giant foxtail plant response rating (giant foxtail; [5])
7: Plant response rating, Giant foxtail (giant foxtail; [11]) | Plant response rating, Giant foxtail (giant foxtail; [10])
2: Plant response rating, Blackgrass (blackgrass; [8]) | Plant response rating, Morningglory (morningglory; [8]) | Morningglory plant response rating (morningglory; [9]) | Plant response rating, Soybean (soybean; [8]) | Plant response rating, Redroot pigweed (pigweed; [8]) | Redroot pigweed plant response rating (pigweed; [9])
3: Morningglory plant response rating (morningglory; [5]) | Giant foxtail plant response rating (giant foxtail; [12])
